# Patent US20060253263A1, “Method to optimize drug selection, dosing and evaluation and to help predict therapeutic response and toxicity from immunosuppressant therapy” (priority 2005, published 2006)
# Like-named read-outs stand apart in the source and are kept apart here.
# How the values were obtained:
# [1] = target: T1, dihydropyrimidine dehydrogenase (DPD) (Homo sapiens, UniProt Q12882); details: cited from earlier work
# T1 construct: host or cells: endogenous enzyme of the body (in vivo drug catabolism)
# T1 sequence (Q12882 4-1025): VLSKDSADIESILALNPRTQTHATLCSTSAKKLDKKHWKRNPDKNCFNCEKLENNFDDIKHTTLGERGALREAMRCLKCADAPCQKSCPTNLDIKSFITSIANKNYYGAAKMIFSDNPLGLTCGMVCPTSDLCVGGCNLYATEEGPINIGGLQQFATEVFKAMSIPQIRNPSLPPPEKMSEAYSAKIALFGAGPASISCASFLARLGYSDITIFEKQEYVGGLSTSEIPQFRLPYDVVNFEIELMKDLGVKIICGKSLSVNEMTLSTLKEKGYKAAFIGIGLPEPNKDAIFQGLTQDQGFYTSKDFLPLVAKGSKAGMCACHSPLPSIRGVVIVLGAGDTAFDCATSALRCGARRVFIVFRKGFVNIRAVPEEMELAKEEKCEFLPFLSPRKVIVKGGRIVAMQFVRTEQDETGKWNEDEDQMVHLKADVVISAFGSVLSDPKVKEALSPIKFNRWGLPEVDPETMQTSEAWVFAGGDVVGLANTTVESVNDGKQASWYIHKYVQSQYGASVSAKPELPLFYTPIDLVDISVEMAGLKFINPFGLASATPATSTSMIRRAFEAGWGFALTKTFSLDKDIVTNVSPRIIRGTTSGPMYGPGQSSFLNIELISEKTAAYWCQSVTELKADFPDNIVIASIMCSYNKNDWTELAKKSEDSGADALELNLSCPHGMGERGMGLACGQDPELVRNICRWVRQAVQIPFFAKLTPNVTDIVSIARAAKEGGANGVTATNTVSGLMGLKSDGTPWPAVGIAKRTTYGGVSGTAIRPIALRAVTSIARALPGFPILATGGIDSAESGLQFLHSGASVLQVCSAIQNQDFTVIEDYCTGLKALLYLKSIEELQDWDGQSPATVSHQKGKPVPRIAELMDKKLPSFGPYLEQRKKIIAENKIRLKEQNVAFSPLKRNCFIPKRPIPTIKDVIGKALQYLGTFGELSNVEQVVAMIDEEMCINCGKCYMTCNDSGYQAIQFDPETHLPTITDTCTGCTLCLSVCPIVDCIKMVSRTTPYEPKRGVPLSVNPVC
# [2] = cited from earlier work
# [3] = test system: advanced colorectal cancers; details: 5-FU alone; cited from earlier work
# [4] = test system: patients with proliferative LN; details: 59 patients, cited from earlier work; for patients who died during maintenance therapy: followed for as long as 30 months
# [5] = human, in vivo
# [6] = test system: patients with class IV LN; details: cited from earlier work; for renal remission achieved: then AZA maintenance
# [7] = test system: patients with severe LN; details: cited from earlier work; for combined end point, complete plus partial remission (number of patients): P=0.009; for complete remission (number of patients) / complete remission (percent of patients) / partial remission (number of patients): induction therapy of LN; for complete remission (number of patients) / complete remission (percent of patients): 140 patients randomized
# [8] = test system: patients with class IV LN; details: cited from earlier work
# [9] = test system: rheumatoid arthritis patients; details: cited from earlier work
# [10] = test system: rheumatoid arthritis patients; details: five trials, 300 patients, cited from earlier work
smiles,measurement,setting,value
"O=c1[nH]cc(F)c(=O)[nH]1 [5-FU, 5-Fluorouracil]",fraction of a dose transformed by DPD to the inactive dihydrofluorouracil form,[1]; in vivo,more than 80%
same,fraction of an injected dose rapidly inactivated by DPD,[1]; injected dose,More than 85%
same,dose excreted unchanged in the urine,[2]; normal individuals,10%
same,dose excreted unchanged in the urine,[2]; people genetically deficient in DPD,90%
same,partial remissions,[3],10-30%
"Cn1cnc([N+](=O)[O-])c1Sc1ncnc2nc[nH]c12 [AZA, azathioprine]",patients who developed chronic renal failure during maintenance therapy,[4],one
same,6-TG level at maintained therapeutic response,[5],187 pmol
same,therapeutic range of 6-TG,[5],140 to 249 pmol
"O=P1(N(CCCl)CCCl)NCCCO1 (stereo not shown) [CYC, Cyclophosphamide]",patients who died during maintenance therapy,[4],four
same,patients who developed chronic renal failure during maintenance therapy,[4],three
same,renal remission achieved,[6]; high-dose group (six monthly pulses followed by two quarterly pulses IV),54%
same,subsequent renal flares,[6]; high-dose group,29%
same,renal remission achieved,[6]; low-dose group (500 mg biweekly x six pulses IV),71%
same,subsequent renal flares,[6]; low-dose group,27%
same,"combined end point, complete plus partial remission (number of patients)",[7],21 patients
same,deaths,[7]; all in patients randomized to IV CYC,Three
same,complete remission (number of patients),[7],four
same,complete remission (percent of patients),[7],6%
same,partial remission (number of patients),[7],17 patients
same,renal survival,"[8]; black patients, at year 5",71%
same,renal survival rate,"[8]; nonblack patients, through 5 years of follow-up",95%
"COc1c(C)c2c(c(O)c1C/C=C(\C)CCC(=O)OCCN1CCOCC1)C(=O)OC2 [MMF, Mycophenolate mofetil]",patients who died during maintenance therapy,[4],one
same,patients who developed chronic renal failure during maintenance therapy,[4],one
same,"combined end point, complete plus partial remission (number of patients)",[7],37 patients
same,complete remission (number of patients),[7],16 patients
same,complete remission (percent of patients),[7],23%
same,partial remission (number of patients),[7],Twenty-one
"CN(Cc1cnc2nc(N)nc(N)c2n1)c1ccc(C(=O)N[C@@H](CCC(=O)O)C(=O)O)cc1 [MTX, methotrexate]",fraction of rheumatoid arthritis patients showing major improvement,"[9]; human, in vivo",one-third
same,patients with mild adverse effects,[9]; rheumatoid arthritis patients,up to 60%
same,more likely than placebo to discontinue treatment due to adverse reactions,[10],three
same,people who withdrew due to adverse effects,[10]; placebo group seven percent,twenty-two
